Assay results from patent US20240358889A1, “PEPTIDE-CONTAINING HYBRID HYDROGEL FOR BONE REGENERATION” (Ramot at Tel-Aviv University Ltd., priority 2022, published 2024).
Ends that are not written are not given here. * marks the point of attachment. Fmoc = O=C(OCC1c2ccccc2-c2ccccc21)*

Assay: Rheological studies of the hydrogel (strain, frequency, shear rate, time sweep, step strain)
Format: physicochemical
Conditions: fixed strain 0.1%, frequency 5 Hz, 37° C.

Fmoc-Phe-Phe [FmocFF]
storage modulus G′: 4,708 Pa
